Experimental data reported in US20160264593A1 (priority 2013, published 2016).
Several values for one entry are separate records, joined by “and”; a condition that tells them apart may be missing. Equal entries are not always repeated.

Experiments:
[1] = test system: PP2A; assay: PP2A activity in mouse livers after IP dosing (PP2A immunoprecipitation phosphatase assay, malachite green); type: in vivo, Balb/c mice; settings: liver
Description: (§1) Coomassie (Bradford) Protein Assay Kit (Pierce); PP2A Immunoprecipitation Phosphatase Assay Kit (Millipore); Lysate preparation for low endogenous phosphate: 20 mM imidazole-HCl, 2 mM EDTA, 2 mM EGTA, 1 mM PMSF, 1 mM benzamidine, 10 ug/ml each of aprotinin, leupeptin, antipain, soybean trypsin inhibitor; Normal Mouse IgG (Millipore); Okadaic acid (OA) (Tocris); DMSO (Sigma).
(§2) • Species: Mus Musculus • Strain: Balb/c mice • Age: 6-8 weeks • Sex: female • Body weight: 18-22 g • Vendor: Shanghai Laboratory Animal Center, Shanghai, China; • Number of animals: 66 Balb/c mice plus spare
(§3) The mice were kept in laminar flow rooms at constant temperature and humidity with 4 animals in each cage. • Temperature: 20-25 • Humidity: 40-70%. • Light cycle: 12 hours light and 12 hours dark. • Cages: Made of polycarbonate. The size is 29 cm×17.5 cm×12 cm (L×w×H). The bedding material is wood debris, which is changed once per week. • Diet: Animals had free access to irradiation sterilized dry granule food during the entire study period. • Water: Animals had free access to sterile drinking water. • Cage identification: the identification labels for each cage contained the following information: number of animals, sex, strain, date arrival, treatment, study number, group number, and the starting date of the treatment. • Animal identification: Animals were marked by ear punch.
(§4) All the procedures related to animal handling, care, and the treatment in this study were performed according to guidelines approved by the Institutional Animal Care and Use Committee (IACUC) of WuXi AppTec (Shanghai), following the guidance of the Association for Assessment and Accreditation of Laboratory Animal Care (AAALAC). At the time of routine monitoring, the animals were checked and recorded for any effects of tumor growth on normal behavior such as mobility, food and water consumption (by looking only), body weight gain/loss, eye/hair matting and any other abnormal effect.
(§5) 1. Proper amount of the compounds were weighed. 2. The compounds were dissolved in 4% sterile sodium bicarbonate. 3. All of the compounds should be well dissolved and clear. 4. The compounds should be kept cold once in solution and injected within an hour. 5. The mice were administered intraperitoneally according to their body weights, 20 g mouse was treated with 0.2 ml compound solution. 6. Mice were treated with vehicle and compounds according to Table 1. 7. 3 hours after the dose, 3 mice from each group were euthanized by
(§6) CO2 exposure, and the brains and left lobe of livers were taken and snap-frozen in liquid nitrogen immediately. 6 hours after the dose, the other 3 mice from each group were euthanized by CO2 exposure, and the brains and left lobe of livers were taken and snap-frozen in liquid nitrogen immediately.
(§7) Preparation of malachite green phosphate detection solution Added […] of Solution B to each 1 mL of Solution A, kept at room temperature during use. […] of mixed solution AB is used per assay well.
(§8) Diluted 125 mL Phosphate Standard (Solution C) with 1125 mL of distilled water to make 0.1 mM working solution. The solution was used to prepare a phosphate standard curve as described in the table below.
(§9) 1. 25 μL of each phosphate standards was transferred to wells of microliter plate. 2. Added 100 μL of Malachite Green Solution AB. Mixed carefully without creating bubbles. 3. Cultured for 15 minutes at RT. 4. Measured absorbance at a wavelength between 650 nm in a microliter plate reader.
(§10) 1. Dissolved 1 mg Threonine Phosphopeptide (Catalog #12-219) in 1.10 mL of distilled water to prepare a 1 mM solution. 2. Aliquot peptide solution and stored at ˜20° C. as necessary.
(§11) 1. Mouse brain or liver was homogenized using lysis buffer (25 g/L), centrifuged at 12000 g for 10 minutes at […], and the supernatants were collected. 2. The protein was quantitated, and 240 μg of mouse brain or liver lysate was taken to assay phosphatase activity. 3. […]

[2] = test system: PP2A; assay: PP2A activity in mouse brains after IP dosing (PP2A immunoprecipitation phosphatase assay, malachite green); type: in vivo, Balb/c mice; design: Average Conc. (group of 3 mice): unit not given here; settings: brain
Description: as §1, §2, §3, §4, §5, §6, §7, §8, §9, §10, §11

[3] = high dose IP (mpk: 100 1.5, 113 2.2, 151 1.6, 157 2.0), 3 h
[4] = high dose IP (mpk: 100 1.5, 113 2.2, 151 1.6, 157 2.0), 6 h
[5] = low dose IP (mpk: 100 0.75, 113 1.1, 151 0.8, 153 0.85, 157 1.0), 3 h
[6] = low dose IP (mpk: 100 0.75, 113 1.1, 151 0.8, 153 0.85, 157 1.0), 6 h
[7] = high dose IP (mpk: 100 1.5, 113 2.2, 151 1.6, 153 1.7, 157 2.0), 3 h
[8] = high dose IP (mpk: 100 1.5, 113 2.2, 151 1.6, 153 1.7, 157 2.0), 6 h

SMILES: COC(=O)C1C2CCC(O2)C1C(=O)N1CCN(C)CC1 (centres unmarked) [Compound 151]
- Average Conc. (group of 3 mice) [1, 3]: 472.47
- Average Relative Activity (group, vehicle = 100) [1, 3]: 112.5
- Conc. (phosphate, single reading, per mouse) [1, 3]: 387.96 and 418.01 and 367.5 and 404.51 and 757.23 and 772.47
- Mean Conc. (per mouse) [1, 3]: 402.99 and 386.01 and 764.85
- Mean Conc. less IgG blank (per mouse) [1, 3]: 357.51 and 340.53 and 719.38
- Relative Conc. (per mouse, to vehicle) [1, 3]: 0.85 and 0.81 and 1.71
- Relative PP2A Activity (per mouse, vehicle = 100) [1, 3]: 85.13 and 81.08 and 171.29
- Average Conc. (group of 3 mice) [1, 4]: 241.1
- Average Relative Activity (group, vehicle = 100) [1, 4]: 54.24
- Conc. (phosphate, single reading, per mouse) [1, 4]: 320.03 and 325.26 and 287.37 and 311.32 and 231.2 and 244.26
- Mean Conc. (per mouse) [1, 4]: 322.65 and 299.35 and 237.73
- Mean Conc. less IgG blank (per mouse) [1, 4]: 277.17 and 253.87 and 192.25
- Relative Conc. (per mouse, to vehicle) [1, 4]: 0.62 and 0.57 and 0.43
- Relative PP2A Activity (per mouse, vehicle = 100) [1, 4]: 62.36 and 57.11 and 43.25
- Average Conc. (group of 3 mice) [1, 5]: 423.92
- Average Relative Activity (group, vehicle = 100) [1, 5]: 100.94
- Conc. (phosphate, single reading, per mouse) [1, 5]: 430.64 and 449.36 and 437.61 and 446.75 and 521.21 and 530.8
- Mean Conc. (per mouse) [1, 5]: 440 and 442.18 and 526
- Mean Conc. less IgG blank (per mouse) [1, 5]: 394.52 and 396.7 and 480.53
- Relative Conc. (per mouse, to vehicle) [1, 5]: 0.94 (2×) and 1.14
- Relative PP2A Activity (per mouse, vehicle = 100) [1, 5]: 93.94 and 94.46 and 114.42
- Average Conc. (group of 3 mice) [1, 6]: 307.58
- Average Relative Activity (group, vehicle = 100) [1, 6]: 69.2
- Conc. (phosphate, single reading, per mouse) [1, 6]: 260.81 and 279.97 and 333.1 and 357.92 and 428.03 and 458.51
- Mean Conc. (per mouse) [1, 6]: 270.39 and 345.51 and 443.27
- Mean Conc. less IgG blank (per mouse) [1, 6]: 224.91 and 300.03 and 397.79
- Relative Conc. (per mouse, to vehicle) [1, 6]: 0.51 and 0.67 and 0.89
- Relative PP2A Activity (per mouse, vehicle = 100) [1, 6]: 50.6 and 67.5 and 89.49
- Average Conc. (group of 3 mice) [2, 7]: 2166.08
- Average Relative Activity (group, vehicle = 100) [2, 7]: 87.89
- Conc. (phosphate, single reading, per mouse) [2, 7]: 3168.39 and 2285.85 and 2334.84 and 1781.17 and 1662.47 and 1991.94
- Mean Conc. (per mouse) [2, 7]: 2310.34 and 1721.82 and 2580.16
- Mean Conc. less IgG blank (per mouse) [2, 7]: 2272.32 and 1683.79 and 2542.14
- Relative Conc. (per mouse, to vehicle) [2, 7]: 1.05 and 0.78 and 1.17
- Relative PP2A Activity (per mouse, vehicle = 100) [2, 7]: 92.20 and 68.32 and 103.14
- Average Conc. (group of 3 mice) [2, 8]: 2082.71
- Average Relative Activity (group, vehicle = 100) [2, 8]: 74.99
- Conc. (phosphate, single reading, per mouse) [2, 8]: 1999.47 and 1945.40 and 1958.41 and 2142.56 and 2296.42 and 2382.19
- Mean Conc. (per mouse) [2, 8]: 1972.43 and 2050.48 and 2339.31
- Mean Conc. less IgG blank (per mouse) [2, 8]: 1934.40 and 2012.45 and 2301.28
- Relative Conc. (per mouse, to vehicle) [2, 8]: 0.79 and 0.82 and 0.94
- Relative PP2A Activity (per mouse, vehicle = 100) [2, 8]: 69.65 and 72.46 and 82.86
- Average Conc. (group of 3 mice) [2, 5]: 1599.57
- Average Relative Activity (group, vehicle = 100) [2, 5]: 64.90
- Conc. (phosphate, single reading, per mouse) [2, 5]: 1332.79 and 1495.39 and 2603.34 and 1925.68 and 1273.84 and 1194.57
- Mean Conc. (per mouse) [2, 5]: 1414.09 and 2264.51 and 1234.21
- Mean Conc. less IgG blank (per mouse) [2, 5]: 1376.06 and 2226.48 and 1196.18
- Relative Conc. (per mouse, to vehicle) [2, 5]: 0.63 and 1.03 and 0.55
- Relative PP2A Activity (per mouse, vehicle = 100) [2, 5]: 55.83 and 90.34 and 48.53
- Average Conc. (group of 3 mice) [2, 6]: 1662.31
- Average Relative Activity (group, vehicle = 100) [2, 6]: 59.85
- Conc. (phosphate, single reading, per mouse) [2, 6]: 1514.30 and 1280.55 and 1980.77 and 1880.56 and 1846.62 and 1699.26
- Mean Conc. (per mouse) [2, 6]: 1397.42 and 1930.66 and 1772.94
- Mean Conc. less IgG blank (per mouse) [2, 6]: 1359.40 and 1892.63 and 1734.91
- Relative Conc. (per mouse, to vehicle) [2, 6]: 0.56 and 0.77 and 0.71
- Relative PP2A Activity (per mouse, vehicle = 100) [2, 6]: 48.95 and 68.15 and 62.47
